The values that follow come from ChEMBL document CHEMBL1129358, “Esters and amides of 6-(chloromethyl)-2-oxo-2H-1-benzopyran-3-carboxylic acid as inhibitors of alpha-chymotrypsin: significance of the "aromatic" nature of the novel ester-type coumarin for strong inhibitory activity” (J Med Chem, 1996).

What is called Ki is the dissociation constant of the complex between target and ligand, obtained from inhibition or displacement.

Experiment [1] concerns the target T1, Neutrophil elastase (Homo sapiens) (UniProt P08246).
T1 sequence (whole entry): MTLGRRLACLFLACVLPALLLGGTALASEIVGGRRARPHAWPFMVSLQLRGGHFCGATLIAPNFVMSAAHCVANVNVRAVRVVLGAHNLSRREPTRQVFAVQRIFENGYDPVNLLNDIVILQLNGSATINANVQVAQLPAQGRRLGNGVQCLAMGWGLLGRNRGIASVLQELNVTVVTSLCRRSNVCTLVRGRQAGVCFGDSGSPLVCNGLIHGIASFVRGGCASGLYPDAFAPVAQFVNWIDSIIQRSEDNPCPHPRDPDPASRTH
Description: Ratio between k observed and KI of Human leukocyte elastase (HEL);[…].

Experiment [2] concerns the target Chymotrypsinogen A (Bos taurus) (UniProt P00766). Description: Compound was tested for the Inactivation of alpha-chymotrypsin.
Experiment [3] has as its target Chymotrypsinogen A (Bos taurus, UniProt P00766). Description: Compound was tested for the binding affinity against alpha-chymotrypsin.
Experiment [4] addresses Chymotrypsinogen A (Bos taurus) (UniProt P00766). The experiment can be described thus: Ratio between k inactivation and KI of alpha-chymotrypsin.
Experiment [5] relates to alpha-chymotrypsin (Bos taurus). The experiment can be described thus: Ratio between k observed and KI of bovine alpha-chymotrypsin at 20 degree C.
The target in experiment [6] is T1, Neutrophil elastase (Homo sapiens). Description: Ratio between k observed and KI of Human leukocyte elastase (HEL).
In experiment [7] the target is Chymotrypsinogen A (Bos taurus) (UniProt P00766). The experiment can be described thus: Ratio between k inactivation and KI of alpha-chymotrypsin; No inhibition.

Activity calls are given as the source filed them. No cut-off for these calls is given here.

Turning to `Cc1ccccc1OC(=O)c1cc2cc(CCl)ccc2oc1=O`, the “K obs / 1” value in experiment [1] was “inactive”. The K inact in experiment [2] came to 0.043 s⁻¹. Also, in experiment [3], the affinity corresponds to a Ki of 380 nM. Further, the K inact/Ki in experiment [4] came out at 114000 M⁻¹ s⁻¹.

`COC(=O)c1cc2cc(CCl)ccc2oc1=O`: the “K obs / 1” value in experiment [1] is “inactive”. For the same compound, the K inact/Ki in experiment [4] was 110 M⁻¹ s⁻¹.

For `O=C(OCc1ccccc1)c1cc2cc(CCl)ccc2oc1=O`, the “K obs / 1” value in experiment [1] is “inactive”. Besides, the K inact/Ki in experiment [4] turned out to be 186 M⁻¹ s⁻¹.

For the compound `O=C(NCCc1ccccc1)c1cc2cc(CCl)ccc2oc1=O`, in experiment [1], the “K obs / 1” value is “inactive”. The K inact/Ki in experiment [4] is 6 M⁻¹ s⁻¹.

`COC(=O)C(Cc1ccccc1)NC(=O)c1cc2cc(CCl)ccc2oc1=O` (stereo unspecified): the “K obs / 1” value in experiment [1] is “inactive”. Further, the K inact/Ki in experiment [4] was 80 M⁻¹ s⁻¹.

In the case of `O=c1ccc2cc(CBr)ccc2o1`, in experiment [5], the K obs / 1 came out at 12.5 M⁻¹ s⁻¹.

Take `O=C(NCc1ccccc1)c1cc2cc(CCl)ccc2oc1=O`: the K obs / 1 in experiment [6] was found to be 58 M⁻¹ s⁻¹. In experiment [4], the K inact/Ki worked out at 24 M⁻¹ s⁻¹.

`O=C(Oc1cccc(I)c1)c1cc2cc(CCl)ccc2oc1=O`: the K obs / 1 in experiment [6] amounted to 85 M⁻¹ s⁻¹. Also, the K inact/Ki in experiment [4] was determined as 72100 M⁻¹ s⁻¹.

As to `Cc1ccc(OC(=O)c2cc3cc(CCl)ccc3oc2=O)cc1`, in experiment [1], the “K obs / 1” value is “inactive”. In addition, the K inact/Ki in experiment [4] worked out at 685 M⁻¹ s⁻¹.

Take `CCCCCCCCCCNC(=O)c1cc2cc(CCl)ccc2oc1=O`: the “K obs / 1” value in experiment [1] was “inactive”.

For the compound `COC(=O)CNC(=O)c1cc2cc(CCl)ccc2oc1=O`, in experiment [1], the “K obs / 1” value was “inactive”. For the same compound, the K inact/Ki in experiment [4] was determined as 12 M⁻¹ s⁻¹.

Consider `O=C(O)c1cc2cc(CCl)ccc2oc1=O`, for which, in experiment [1], the “K obs / 1” value is “inactive”. In addition, the “K inact/Ki” value in experiment [7] was “inactive”.

Regarding `O=C(Oc1cccc([N+](=O)[O-])c1)c1cc2cc(CCl)ccc2oc1=O`, the K obs / 1 in experiment [6] was found to be 500 M⁻¹ s⁻¹. The K inact/Ki in experiment [4] was 11300 M⁻¹ s⁻¹.

For the compound `O=C(Oc1ccccc1)c1cc2cc(CCl)ccc2oc1=O`, the K inact in experiment [2] was found to be 0.034 s⁻¹. In addition, in experiment [6], the K obs / 1 is 23 M⁻¹ s⁻¹. The same compound displayed a Ki in experiment [3] of 340 nM. Also, the K inact/Ki in experiment [4] was 100000 M⁻¹ s⁻¹.

`CCOC(=O)c1cc2cc(CCl)ccc2oc1=O`: the “K obs / 1” value in experiment [1] was “inactive”. This compound also returned a K inact in experiment [2] of 0.013 s⁻¹. Further, in experiment [3], the inhibitory constant (Ki) stood at 59000 nM. Also, the K inact/Ki in experiment [4] stood at 220 M⁻¹ s⁻¹.

Take `CC(C)NC(=O)c1cc2cc(CCl)ccc2oc1=O`: the “K obs / 1” value in experiment [1] is “inactive”. In addition, the “K inact/Ki” value in experiment [7] is “inactive”.

For the compound `Cc1cc(OC(=O)c2cc3cc(CCl)ccc3oc2=O)ccc1Cl`, in experiment [6], the K obs / 1 was 90 M⁻¹ s⁻¹. Besides, the K inact/Ki in experiment [4] stood at 7550 M⁻¹ s⁻¹.

Regarding `CCCCCCCCOC(=O)c1cc2cc(CCl)ccc2oc1=O`, in experiment [1], the “K obs / 1” value is “inactive”. Further, the K inact/Ki in experiment [4] is 190 M⁻¹ s⁻¹.

In the case of `CCCCCOC(=O)c1cc2cc(CCl)ccc2oc1=O`, in experiment [1], the “K obs / 1” value is “inactive”. For the same compound, in experiment [4], the K inact/Ki is 12 M⁻¹ s⁻¹.

As to `O=C(Oc1ccc(I)cc1)c1cc2cc(CCl)ccc2oc1=O`, the “K obs / 1” value in experiment [1] was “inactive”. For the same compound, the K inact/Ki in experiment [4] came out at 1780 M⁻¹ s⁻¹.

In turn, `O=C(Oc1ccccc1Cl)c1cc2cc(CCl)ccc2oc1=O` had a K inact in experiment [2] of 0.038 s⁻¹. The K obs / 1 in experiment [6] was found to be 23 M⁻¹ s⁻¹. In experiment [3], this compound came in with a Ki of 790 nM. The K inact/Ki in experiment [4] came to 48100 M⁻¹ s⁻¹.

On to `C=CCNC(=O)c1cc2cc(CCl)ccc2oc1=O`, for which the “K obs / 1” value in experiment [1] is “inactive”. Besides, in experiment [4], the K inact/Ki came to 80 M⁻¹ s⁻¹.

On to `CCCCCNC(=O)c1cc2cc(CCl)ccc2oc1=O`, for which the “K obs / 1” value in experiment [1] is “inactive”. In addition, in experiment [7], the “K inact/Ki” value was “inactive”.

Turning to `C=CCOC(=O)c1cc2cc(CCl)ccc2oc1=O`, the “K obs / 1” value in experiment [1] is “inactive”. The K inact in experiment [2] came to 0.014 s⁻¹. In addition, affinity in experiment [3] was put at a Ki of 33000 nM. The K inact/Ki in experiment [4] turned out to be 424 M⁻¹ s⁻¹.

In the case of `Cc1cccc(OC(=O)c2cc3cc(CCl)ccc3oc2=O)c1`, the “K obs / 1” value in experiment [1] was “inactive”. In addition, in experiment [4], the K inact/Ki worked out at 71800 M⁻¹ s⁻¹.

Turning to `CNC(=O)c1cc2cc(CCl)ccc2oc1=O`, in experiment [1], the “K obs / 1” value is “inactive”. For the same compound, in experiment [7], the “K inact/Ki” value is “inactive”.

In the case of `O=C(Nc1ccccc1)c1cc2cc(CCl)ccc2oc1=O`, the “K obs / 1” value in experiment [1] was “inactive”. The K inact/Ki in experiment [4] came out at 32 M⁻¹ s⁻¹.

Regarding `CC(C)OC(=O)c1cc2cc(CCl)ccc2oc1=O`, the “K obs / 1” value in experiment [1] is “inactive”. Also, the K inact in experiment [2] came out at 0.011 s⁻¹. Besides, the Ki in experiment [3] worked out at 16000 nM. Also, the K inact/Ki in experiment [4] came to 687 M⁻¹ s⁻¹.

As to `O=C(Oc1cccc(Cl)c1)c1cc2cc(CCl)ccc2oc1=O`, the K obs / 1 in experiment [6] was found to be 630 M⁻¹ s⁻¹. The K inact/Ki in experiment [4] amounted to 763000 M⁻¹ s⁻¹.

Turning to `O=C(Oc1ccccc1I)c1cc2cc(CCl)ccc2oc1=O`, in experiment [2], the K inact was 0.02 s⁻¹. For the same compound, the K obs / 1 in experiment [6] was found to be 85 M⁻¹ s⁻¹. In addition, affinity in experiment [3] was put at a Ki of 250 nM. In experiment [4], the K inact/Ki came to 80000 M⁻¹ s⁻¹.

Take `Cc1ccc2oc(=O)c(C(=O)Oc3ccccc3)cc2c1`: the K obs / 1 in experiment [6] turned out to be 330 M⁻¹ s⁻¹. Moreover, the “K inact/Ki” value in experiment [7] is “inactive”.

As to `O=C(Oc1ccc(Cl)cc1)c1cc2cc(CCl)ccc2oc1=O`, the “K obs / 1” value in experiment [1] was “inactive”. Further, in experiment [4], the K inact/Ki was 330 M⁻¹ s⁻¹.
